Reference: patent US11236046B2, “Substituted heterocyclic sulfonamide compounds useful as TRPA1 modulators” (Genentech, Inc., priority 2013, dated 2022)

Target: human TRPA1 (Homo sapiens (Human), UniProt O75762)
Experiment: FLIPR Tetra calcium influx assay, block of cinnamaldehyde-induced calcium influx in CHO cells expressing TRPA1 (human)
Assay type: cell-based
Settings: 20 min compound incubation, 75 uM cinnamaldehyde (~EC80), Hill coefficient fixed to 1.5, read-out: hTRPA1 AUC IC50
Summary of the method: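 CHO cells loaded with calcium dye, preincubated with compounds 20 min at room temperature in HBSS/20 mM HEPES pH 7.4 with 0.02% BSA. Channels activated by ~EC80 cinnamaldehyde (75 uM human, 45 uM rat); block of calcium influx read on FLIPR Tetra, IC50 fitted with fixed Hill coefficient.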

human TRPA1, sequence (O75762 whole entry): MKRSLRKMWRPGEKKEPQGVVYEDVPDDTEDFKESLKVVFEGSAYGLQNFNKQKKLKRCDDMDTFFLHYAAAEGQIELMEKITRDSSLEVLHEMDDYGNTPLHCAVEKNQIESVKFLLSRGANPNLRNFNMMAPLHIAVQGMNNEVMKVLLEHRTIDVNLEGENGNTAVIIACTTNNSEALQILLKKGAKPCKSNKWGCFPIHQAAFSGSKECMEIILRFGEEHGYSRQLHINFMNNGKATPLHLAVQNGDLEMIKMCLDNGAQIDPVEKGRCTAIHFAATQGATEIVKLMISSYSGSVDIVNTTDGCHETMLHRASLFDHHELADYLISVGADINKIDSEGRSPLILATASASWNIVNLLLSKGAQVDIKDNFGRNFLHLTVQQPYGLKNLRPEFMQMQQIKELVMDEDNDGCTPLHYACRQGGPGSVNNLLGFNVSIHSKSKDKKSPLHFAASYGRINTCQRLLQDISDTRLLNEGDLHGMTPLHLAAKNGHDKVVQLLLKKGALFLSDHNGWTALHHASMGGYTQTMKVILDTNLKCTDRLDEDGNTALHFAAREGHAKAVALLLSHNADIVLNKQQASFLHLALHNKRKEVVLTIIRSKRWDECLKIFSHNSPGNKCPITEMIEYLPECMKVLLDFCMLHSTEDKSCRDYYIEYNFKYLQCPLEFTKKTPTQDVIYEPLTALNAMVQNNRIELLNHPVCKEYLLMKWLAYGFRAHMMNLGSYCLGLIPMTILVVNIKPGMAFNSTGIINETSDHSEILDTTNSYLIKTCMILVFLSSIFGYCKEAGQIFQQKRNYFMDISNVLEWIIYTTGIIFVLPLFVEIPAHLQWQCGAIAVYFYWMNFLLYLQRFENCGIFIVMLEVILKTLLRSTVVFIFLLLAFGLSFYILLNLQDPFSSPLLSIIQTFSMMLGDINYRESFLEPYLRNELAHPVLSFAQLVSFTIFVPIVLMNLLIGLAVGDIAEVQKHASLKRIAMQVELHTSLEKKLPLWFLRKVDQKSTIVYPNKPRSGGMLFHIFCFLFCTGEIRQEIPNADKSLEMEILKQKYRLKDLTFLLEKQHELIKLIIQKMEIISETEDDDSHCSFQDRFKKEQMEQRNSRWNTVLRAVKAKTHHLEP

Structure (SMILES)	IC50
COc1nc(CNC(=O)[C@@H]2C[C@@H](F)CN2S(=O)(=O)c2ccc(F)cc2)cc(-c2ccc(C(F)(F)F)nc2)n1 [Example 127, (2S,4R)-4-fluoro-1-[(4-fluorobenzene)sulfonyl]-N-([2-methoxy-6-[6-(trifluoromethyl)pyridin-3-yl]pyrimidin-4-yl]methyl)pyrrolidine-2-carboxamide]	97 nM
C[C@@]1(F)C[C@@H](C(=O)NCc2cc(-c3ccc(OC(F)(F)F)cc3)ncn2)N(S(=O)(=O)c2ccc(F)cc2)C1 [Example 46, (2S,4R)-4-fluoro-1-((4-fluorophenyl)sulfonyl)-4-methyl-N-((6-(4-(trifluoromethoxy)phenyl)pyrimidin-4-yl)methyl)pyrrolidine-2-carboxamide]	20 nM
O=C(NCc1cc(N2C3CCC2CC(C(F)(F)F)C3)c(F)cn1)[C@@H]1C[C@@H](F)CN1S(=O)(=O)c1ccc(F)cc1 (stereo partly drawn) [Example 121, (2S,4R)-4-fluoro-N-([5-fluoro-4-[3-(trifluoromethyl)-8-azabicyclo[3.2.1]octan-8-yl]pyridin-2-yl]methyl)-1-[(4-fluorobenzene)sulfonyl]pyrrolidine-2-carboxamide]	741 nM
N#Cc1ccc(-c2cnc(C(F)(F)F)nc2)cc1CNC(=O)[C@@H]1[C@@H](F)CCN1S(=O)(=O)c1ccc(F)cc1 [Example 38, (2R,3S)—N-([2-cyano-5-[2-(trifluoromethyl)pyrimidin-5-yl]phenyl]methyl)-3-fluoro-1-[(4-fluorobenzene)sulfonyl]pyrrolidine-2-carboxamide]	14 nM
O=C(NCc1cc(-c2cnc(C(F)(F)F)nc2)nc(-c2cnc(C(F)(F)F)nc2)c1)[C@@H]1C[C@@H](F)CN1S(=O)(=O)c1ccc(F)cc1 [Example 61, (2S,4R)—N-[[2,6-bis[2-(trifluoromethyl)pyrimidin-5-yl]-4-pyridyl]methyl]-4-fluoro-1-(4-fluorophenyl)sulfonyl-pyrrolidine-2-carboxamide]	71 nM
O=C(NCc1cc(-c2ccc(C(F)F)cc2)ncn1)[C@@H]1C[C@@H](F)CN1S(=O)(=O)c1ccc(F)cc1 [Example 63, (2S,4R)—N-[[6-[4-(difluoromethyl)phenyl]pyrimidin-4-yl]methyl]-4-fluoro-1-(4-fluorophenyl)sulfonyl-pyrrolidine-2-carboxamide]	318 nM
O=C(NCc1cc(-c2cnc(C(F)(F)F)cn2)ccc1F)[C@@H]1C[C@@H](F)CN1S(=O)(=O)c1ccc(F)cc1 [Example 54, (2S,4R)-4-fluoro-N-(2-fluoro-5-(5-(trifluoromethyl)pyrazin-2-yl)benzyl)-1-((4-fluorophenyl)sulfonyl)pyrrolidine-2-carboxamide]	13 nM
O=C(NCc1cc(Cl)nc(-c2cnc(C(F)(F)F)nc2)c1)[C@@H]1C[C@@H](F)CN1S(=O)(=O)c1ccc(F)cc1 [Example 62, (2S,4R)—N-[[2-chloro-6-[2-(trifluoromethyl)pyrimidin-5-yl]-4-pyridyl]methyl]-4-fluoro-1-(4-fluorophenyl)sulfonyl-pyrrolidine-2-carboxamide]	14 nM
O=C(NCc1cc(-c2ccc(C(F)(F)F)nc2)nc(-c2ccc(C(F)(F)F)nc2)c1)[C@@H]1C[C@@H](F)CN1S(=O)(=O)c1ccc(F)cc1 [Example 83, (2S,4R)—N-[[2,6-bis[6-(trifluoromethyl)-3-pyridyl]-4-pyridyl]methyl]-4-fluoro-1-(4-fluorophenyl)sulfonyl-pyrrolidine-2-carboxamide]	54.6 nM
O=C(NCc1cc(-c2cnc(C(F)(F)F)nc2)ccn1)[C@@H]1C[C@@H](F)CN1S(=O)(=O)c1ccc(F)cc1 [Example 53, (2S,4R)-4-fluoro-1-(4-fluorophenyl)sulfonyl-N-[[4-[2-(trifluoromethyl)pyrimidin-5-yl]-2-pyridyl]methyl]pyrrolidine-2-carboxamide]	411 nM
COc1nc(C(F)(F)F)ccc1-c1cc(F)cc(CNC(=O)[C@@H]2C[C@@H](F)CN2S(=O)(=O)c2ccc(F)cc2)c1 [Example 44, (2S,4R)-4-fluoro-N-([3-fluoro-5-[2-methoxy-6-(trifluoromethyl)pyridin-3-yl]phenyl]methyl)-1-[(4-fluorobenzene)sulfonyl]pyrrolidine-2-carboxamide]	48 nM
O=C(NCc1cc(-c2ccc(C(F)(F)F)nc2)ncn1)[C@@H]1C[C@@H](F)CN1S(=O)(=O)c1ccc(F)cc1 [Example 154, (2S,4R)-4-fluoro-1-(4-fluorophenylsulfonyl)-N-((6-(6-(trifluoromethyl)pyridin-3-yl)pyrimidin-4-yl)methyl)pyrrolidine-2-carboxamide]	97 nM

Continued, values first:

IC50	Structure (SMILES)
14 nM	O=C(NCc1cc(-c2ccc(C(F)(F)F)c(F)c2)ncn1)[C@@H]1[C@@H](F)CCN1S(=O)(=O)c1ccc(F)cc1 [Example 93, (2R,3S)-3-fluoro-N-((6-(3-fluoro-4-(trifluoromethyl)phenyl)pyrimidin-4-yl)methyl)-1-(4-fluorophenylsulfonyl)pyrrolidine-2-carboxamide]
48 nM	N#Cc1cc(CNC(=O)[C@@H]2C[C@@H](F)CN2S(=O)(=O)c2ccc(F)cc2)cc(-c2ccc(C(F)(F)F)nc2)c1 [Example 112, (2S,4R)—N-[[3-cyano-5-[6-(trifluoromethyl)-3-pyridyl]phenyl]methyl]-4-fluoro-1-(4-fluorophenyl)sulfonyl-pyrrolidine-2-carboxamide]
25 nM	C[C@@]1(C(=O)NCc2cc(-c3ccc(C(F)(F)F)cc3)ncn2)C[C@@H](F)CN1S(=O)(=O)c1ccc(F)cc1 (single isomer, unassigned) [Example 138]
268 nM	O=C(NCc1cc(-c2ccc(C(F)(F)F)nc2)ncn1)[C@@H]1CCN1S(=O)(=O)c1ccc(F)cc1 [Example 201, (S)-1-(4-fluorophenylsulfonyl)-N-((6-(6-(trifluoromethyl)pyridin-3-yl)pyrimidin-4-yl)methyl)azetidine-2-carboxamide]
13 nM	O=C(NCc1cc(-c2ccc(C(F)(F)F)nc2)c(F)cn1)[C@@H]1[C@@H](F)CCN1S(=O)(=O)c1ccc(F)cc1 [Example 115, (2R,3S)-3-fluoro-1-(4-fluorophenyl)sulfonyl-N-[[5-fluoro-4-[6-(trifluoromethyl)-3-pyridyl]-2-pyridyl]methyl]pyrrolidine-2-carboxamide]
103 nM	O=C(NCc1cc(F)cc(-n2ccc(C(F)(F)F)n2)c1)[C@@H]1C[C@@H](F)CN1S(=O)(=O)c1ccc(F)cc1 [Example 87, (2S,4R)-4-fluoro-1-(4-fluorophenyl)sulfonyl-N-[[3-fluoro-5-[3-(trifluoromethyl)pyrazol-1-yl]phenyl]methyl]pyrrolidine-2-carboxamide]
116 nM	Cc1cnc(-c2cnc(C(F)(F)F)nc2)cc1CNC(=O)[C@@H]1C[C@@H](F)CN1S(=O)(=O)c1ccc(F)cc1 [Example 169, (2S,4R)-4-fluoro-1-[(4-fluorobenzene)sulfonyl]-N-([5-methyl-2-[2-(trifluoromethyl)pyrimidin-5-yl]pyridin-4-yl]methyl)pyrrolidine-2-carboxamide]
56 nM	O=C(NCc1cc(N2CCC(C(F)(F)F)CC2)c(F)cn1)[C@@H]1C[C@@H](F)CN1S(=O)(=O)c1ccc(F)cc1 [Example 144, (2S,4R)-4-fluoro-N-((5-fluoro-4-(4-(trifluoromethyl)piperidin-1-yl)pyridin-2-yl)methyl)-1-(4-fluorophenylsulfonyl)pyrrolidine-2-carboxamide]
23 nM	COc1nn(-c2ccc(C(F)(F)F)cc2)cc1CNC(=O)[C@@H]1C[C@@H](F)CN1S(=O)(=O)c1cccc(F)c1 [Example 134, (2S,4R)-4-fluoro-1-[(3-fluorobenzene)sulfonyl]-N-([3-methoxy-1-[4-(trifluoromethyl)phenyl]-1H-pyrazol-4-yl]methyl)pyrrolidine-2-carboxamide]
52 nM	COCCOc1nc(C(F)(F)F)ccc1-c1cc(F)cc(CNC(=O)[C@@H]2C[C@@H](F)CN2S(=O)(=O)c2ccc(F)cc2)c1 [Example 190, (2S,4R)-4-fluoro-N-([3-fluoro-5-[2-(2-methoxyethoxy)-6-(trifluoromethyl)pyridin-3-yl]phenyl]methyl)-1-[(4-fluorobenzene)sulfonyl]pyrrolidine-2-carboxamide]
89 nM	COCCOc1cc(-c2ccc(C(F)(F)F)nc2)cc(CNC(=O)[C@@H]2C[C@@H](F)CN2S(=O)(=O)c2ccc(F)cc2)n1 [Example 170, (2S,4R)-4-fluoro-1-(4-fluorophenylsulfonyl)-N-((6′-(2-methoxyethoxy)-6-(trifluoromethyl)-3,4′-bipyridin-2′-yl)methyl)pyrrolidine-2-carboxamide]
59 nM	O=C(NCc1cc(C23CCC(C(F)F)(CC2)CC3)ncn1)[C@@H]1C[C@@H](F)CN1S(=O)(=O)c1ccc(F)cc1 [Example 133, (2S,4R)—N-[[6-[4-(difluoromethyl)-1-bicyclo[2.2.2]octanyl]pyrimidin-4-yl]methyl]-4-fluoro-1-(4-fluorophenyl)sulfonyl-pyrrolidine-2-carboxamide]
59 nM	C[C@@]1(C(=O)NCc2cc(-c3ccc(C(F)(F)F)nc3)ncn2)CCN1S(=O)(=O)c1ccc(F)cc1 [Example 198, (S)-1-(4-fluorophenylsulfonyl)-2-methyl-N-((6-(6-(trifluoromethyl)pyridin-3-yl)pyrimidin-4-yl)methyl)azetidine-2-carboxamide]
771 nM	O=C(NCc1cc(F)cc(-n2ccc(C(F)(F)F)cc2=O)c1)[C@@H]1C[C@@H](F)CN1S(=O)(=O)c1ccc(F)cc1 [Example 85, (2S,4R)-4-fluoro-N-[[3-fluoro-5-[2-oxo-4-(trifluoromethyl)-1-pyridyl]phenyl]methyl]-1-(4-fluorophenyl)sulfonyl-pyrrolidine-2-carboxamide]
9 nM	O=C(NCc1cc(-c2ccc(C(F)(F)F)nc2)ccc1F)[C@@H]1C[C@@H](F)CN1S(=O)(=O)c1ccc(F)cc1 [Example 161, (2S,4R)-4-fluoro-N-(2-fluoro-5-(6-(trifluoromethyl)pyridin-3-yl)benzyl)-1-((4-fluorophenyl)sulfonyl)pyrrolidine-2-carboxamide]
